Measurements reported in US20230346670A1, “Prebiotic Oral Care Compositions and Methods” (Colgate-Palmolive Company, priority 2020, published 2023).

Key:
Assay type in all cases: cell-based
A. naeslundii = assay: Multi-species biofilm composition, absolute abundance (Geq/mL); details: repeated rinsing
Description: (§1) Biofilms are grown vertically on Calcium Deficient Hydroxyapatite (CAD-HA) disks (Hitemco Medical, Old Bethpage, USA) using the Amsterdam Active Adhesion model. Biofilms are allowed to establish during 24 h (37° C., 170 rpm) under microaerophilic conditions (6% O2, 7% CO2, 7% H2, 80% N2). After this 24 h, disks are rinsed 3 times a day for 3 minutes (RT, 250 rpm), for 3 consecutive days, by transferring the lid containing the disks to a new 24-well plate containing 2 mL/well of the appropriate substrate solution. As a negative control, PBS (pH 5.7) without substrate supplementation is used.
(§2) N-acetyl-D-glucosamine (NADG), α-D-lactose, D-(+)-trehalose and D-(+)-raffinose are selected to determine their effects on multi-species biofilm composition. Repeated rinsing of the biofilms with the substrates at a concentration of 1 M results in a significant decrease in absolute numbers in at least four of the pathogenic bacterial species tested in the assay, in comparison to the control, the results of which are described in Table 1 below. Note, NADG decreased absolute numbers of S. sobrinus. Absolute abundances of bacterial species are shown as mean ± SD (n = 3) logarithmic values of the genome equivalents per millilitre (log(Geq/mL)).

S. sobrinus = assay: as above; details: repeated rinsing
Description: as §1, §2

P. gingivalis = assay: as above; details: repeated rinsing
Description: as §1, §2

S. gordonii = assay: as above; details: repeated rinsing
Description: as §1, §2

P. intermedia = assay: as above; details: repeated rinsing
Description: as §1, §2

S. mitis = assay: as above; details: repeated rinsing
Description: as §1, §2

A. actinomycetemcomitans = assay: as above; details: repeated rinsing
Description: as §1, §2

S. oralis = assay: as above; details: for absolute abundance of S. oralis, mean ± SD log (Geq/mL): repeated rinsing
Description: as §1, §2

F. nucleatum = assay: as above; details: repeated rinsing
Description: as §1
(§3) N-acetyl-D-glucosamine (NADG), α-D-lactose, D-(+)-trehalose and D-(+)-raffinose are selected to determine their effects on multi-species biofilm composition. […] decrease in absolute numbers in at least four of the pathogenic bacterial species tested in the assay, in comparison to the control, the results of which are described in Table 1 below. Note, NADG decreased absolute numbers of S. sobrinus. Absolute abundances of bacterial species are shown as mean ± SD (n = 3) logarithmic values of the genome equivalents per millilitre (log(Geq/mL)).

A. viscosus = assay: as above; details: repeated rinsing
Description: as §1, §3

S. salivarius = assay: as above; details: repeated rinsing
Description: as §1, §3

V. parvula = assay: as above; details: repeated rinsing
Description: as §1, §3

S. sanguinis = assay: as above; details: repeated rinsing
Description: as §1, §3

S. mutans = assay: as above; details: repeated rinsing
Description: as §1, §3

[1] = system: human oral keratinocytes (HOK-18A); assay: Inflammatory mediator gene expression in keratinocytes exposed to substrate-treated biofilms (SYBR RT-qPCR); details: relative to control, n = 3
Description: Cultures of immortalized human oral keratinocytes (HOK-18A) are grown. […] The IL-8 levels in the cellular supernatant are determined as well. RNA is converted to cDNA and relative expression of inflammatory mediator genes is determined as described above with respect to the cellular housekeeping gene β-actin.
In HOKs exposed to substrate-treated (substrate concentrations of […]) multi-species biofilms, there are mostly decreases in inflammatory mediator gene expression as measured via SYBR RT-qPCR, the results of which are detailed in Table 7:
Fold changes in inflammatory mediator gene expression from human oral keratinocytes (HOK-18A) exposed to substrate-treated multi-species biofilms are determined relatively to the control through the 2^^-ΔΔCt method and are shown as the geometric mean (C.I.) (n = 3) of the 2^^-ΔΔCt values. All substrates are dissolved in PBS at a concentration of 1 M (upper part) or 1%(w/v) (lower part). Values between 0 and 1 represent relative downregulation, values >1 represent relative upregulation.

[2] = system: multi-species biofilm (beneficial/commensal species, periodontal pathogens, cariogenic pathogens); assay: Multi-species biofilm composition, relative proportions and group changes
Description: Biofilms are grown vertically on Calcium Deficient Hydroxyapatite (CAD-HA) disks (Hitemco Medical, Old Bethpage, USA) using the Amsterdam Active Adhesion model. […] After this 24 h, disks are rinsed 3 times a day for 3 minutes (RT, 250 rpm), for 3 consecutive days, by transferring the lid containing the disks to a new 24-well plate containing 2 mL/well of the appropriate substrate solution. As a negative control, PBS (pH 5.7) without substrate supplementation is used. N-acetyl-D-glucosamine (NADG), α-D-lactose, D-(+)-trehalose and D-(+)-raffinose are selected to determine their effects on multi-species biofilm composition. Repeated rinsing of the biofilms with the substrates at a concentration of 1 M results in a significant decrease in absolute numbers in at least four of the pathogenic bacterial species tested in the assay, in comparison to the control, the results of which are described in Table 1 below. Note, NADG decreased absolute numbers of S. sobrinus. Absolute abundances of bacterial species are shown as mean ± SD (n = 3) logarithmic values of the genome equivalents per millilitre (log(Geq/mL)).

[3] = HOK-18A exposed to biofilms treated with substrate 1% (w/v)
[4] = HOK-18A exposed to biofilms treated with substrate 1 M
[5] = Table 1a, substrate 1 M, listed as D-(+)-raffinose
[6] = Table 3, separate experiments, concentration not given

OC[C@H]1O[C@H](OC[C@H]2O[C@H](O[C@]3(CO)O[C@H](CO)[C@@H](O)[C@@H]3O)[C@H](O)[C@@H](O)[C@@H]2O)[C@H](O)[C@@H](O)[C@H]1O [D-raffinose, D-(+)-raffinose]
absolute abundance of A. naeslundii (An), mean ± SD log (Geq/mL) (A. naeslundii; substrate 1% (w/v)): 7.62 ± 0.08 log (Geq/mL) | absolute abundance of A. naeslundii (An), mean ± SD log (Geq/mL) (A. naeslundii; substrate 1 M in PBS, n = 3): 5.32 ± 0.25^∗ log (Geq/mL) | absolute abundance of S. sobrinus, mean ± SD log (Geq/mL) (S. sobrinus; substrate 1% (w/v)): 5.36 ± 0.20 log (Geq/mL) | absolute abundance of S. sobrinus, mean ± SD log (Geq/mL) (S. sobrinus; substrate 1 M in PBS, n = 3): 7.06 ± 0.15 log (Geq/mL) | absolute abundance of P. gingivalis (Pg), mean ± SD log (Geq/mL) (P. gingivalis; substrate 1% (w/v)): 6.94 ± 0.21 log (Geq/mL) | absolute abundance of P. gingivalis (Pg), mean ± SD log (Geq/mL) (P. gingivalis; substrate 1 M in PBS, n = 3): 4.59 ± 0.45^∗ log (Geq/mL) | absolute abundance of S. gordonii, mean ± SD log (Geq/mL) (S. gordonii; substrate 1% (w/v)): 8.12 ± 0.06 log (Geq/mL) | absolute abundance of S. gordonii, mean ± SD log (Geq/mL) (S. gordonii; substrate 1 M in PBS, n = 3): 8.93 ± 0.31 log (Geq/mL) | absolute abundance of P. intermedia (Pi), mean ± SD log (Geq/mL) (P. intermedia; substrate 1% (w/v)): 7.83 ± 0.32 log (Geq/mL) | absolute abundance of P. intermedia (Pi), mean ± SD log (Geq/mL) (P. intermedia; substrate 1 M in PBS, n = 3): 5.21 ± 0.77^∗ log (Geq/mL) | absolute abundance of S. mitis, mean ± SD log (Geq/mL) (S. mitis; substrate 1% (w/v)): 2.65 ± 0.00 log (Geq/mL) | absolute abundance of S. mitis, mean ± SD log (Geq/mL) (S. mitis; substrate 1 M in PBS, n = 3): 3.58 ± 1.31 log (Geq/mL) | absolute abundance of A. actinomycetemcomitans (Aa), mean ± SD log (Geq/mL) (A. actinomycetemcomitans; substrate 1% (w/v)): 9.14 ± 0.12 log (Geq/mL) | absolute abundance of A. actinomycetemcomitans (Aa), mean ± SD log (Geq/mL) (A. actinomycetemcomitans; substrate 1 M in PBS, n = 3): 8.30 ± 0.29^∗ log (Geq/mL) | decrease in S. oralis numbers in comparison to the control (S. oralis; substrate 1% (w/v)): ~ 0.9 log(Geq/mL) | absolute abundance of S. oralis, mean ± SD log (Geq/mL) (S. oralis; substrate 1% (w/v)): 5.98 ± 0.18^∗ log (Geq/mL) | absolute abundance of S. oralis, mean ± SD log (Geq/mL) (S. oralis; substrate 1 M in PBS, n = 3): 8.52 ± 0.17^∗ log (Geq/mL) | absolute abundance of F. nucleatum (Fn), mean ± SD log (Geq/mL) (F. nucleatum; substrate 1% (w/v)): 9.40 ± 0.10 log (Geq/mL) | absolute abundance of F. nucleatum (Fn), mean ± SD log (Geq/mL) (F. nucleatum; substrate 1 M in PBS, n = 3): 6.73 ± 0.06^∗ log (Geq/mL) | absolute abundance of A. viscosus (Av), mean ± SD log (Geq/mL) (A. viscosus; substrate 1% (w/v)): 7.77 ± 0.14 log (Geq/mL) | absolute abundance of A. viscosus (Av), mean ± SD log (Geq/mL) (A. viscosus; substrate 1 M in PBS, n = 3): 7.08 ± 0.59 log (Geq/mL) | absolute abundance of S. salivarius, mean ± SD log (Geq/mL) (S. salivarius; substrate 1% (w/v)): 2.65 ± 0.00 log (Geq/mL) | absolute abundance of S. salivarius, mean ± SD log (Geq/mL) (S. salivarius; substrate 1 M in PBS, n = 3): 6.29 ± 0.21^∗ log (Geq/mL) | absolute abundance of V. parvula (VP), mean ± SD log (Geq/mL) (V. parvula; substrate 1% (w/v)): 9.83 ± 0.09 log (Geq/mL) | absolute abundance of V. parvula (VP), mean ± SD log (Geq/mL) (V. parvula; substrate 1 M in PBS, n = 3): 9.88 ± 0.07 log (Geq/mL) | absolute abundance of S. sanguinis, mean ± SD log (Geq/mL) (S. sanguinis; substrate 1% (w/v)): 8.56 ± 0.11 log (Geq/mL) | absolute abundance of S. sanguinis, mean ± SD log (Geq/mL) (S. sanguinis; substrate 1 M in PBS, n = 3): 6.39 ± 0.51 log (Geq/mL) | absolute abundance of S. mutans, mean ± SD log (Geq/mL) (S. mutans; substrate 1% (w/v)): 7.46 ± 0.16 log (Geq/mL) | absolute abundance of S. mutans, mean ± SD log (Geq/mL) (S. mutans; substrate 1 M in PBS, n = 3): 8.24 ± 0.17^∗ log (Geq/mL) | fold change in IL-1β gene expression, geometric mean (C.I.) [1, 3]: 0.93 (0.56-1.55) fold | fold change in IL-6 gene expression, geometric mean (C.I.) [1, 3]: 0.70 (0.44-1.13)^∗ fold | fold change in IL-8 gene expression, geometric mean (C.I.) [1, 3]: 1.08 (0.73-1.59) fold | fold change in MMP-8 gene expression, geometric mean (C.I.) [1, 3]: 0.71 (0.38-1.35) fold | fold change in TNF-α gene expression, geometric mean (C.I.) [1, 3]: 0.77 (0.55-1.08) fold | fold change in IL-1β gene expression, geometric mean (C.I.) [1, 4]: 0.8 (0.44-1.46) fold | fold change in IL-6 gene expression, geometric mean (C.I.) [1, 4]: 0.54 (0.17-1.72) fold | fold change in IL-8 gene expression, geometric mean (C.I.) [1, 4]: 0.10 (0.04-0.29)^∗ fold | fold change in MMP-8 gene expression, geometric mean (C.I.) [1, 4]: 0.85 (0.61-1.19) fold | fold change in TNF-α gene expression, geometric mean (C.I.) [1, 4]: 0.66 (0.56-0.78)^∗ fold | relative proportion of beneficial or commensal species in biofilm ([2]; Table 1a, substrate 1 M): 95.86 (+/- 1.63)^∗ % (Geq/mL) | relative proportion of cariogenic pathogens in biofilm ([2]; Table 1a, substrate 1 M): 1.85 (+/- 0.68) % (Geq/mL) | relative proportion of periodontal pathogens in biofilm ([2]; Table 1a, substrate 1 M): 2.29 (+/- 1.40)^∗ % (Geq/mL) | relative proportion of beneficial or commensal species in biofilm [2, 5]: 95.86±1.63 % (Geq/mL) | relative proportion of cariogenic pathogens in biofilm [2, 5]: 1.85±0.68 % (Geq/mL) | relative proportion of periodontal pathogens in biofilm [2, 5]: 2.29±1.40 % (Geq/mL) | relative proportion of beneficials/commensals in biofilm [2, 6]: 64.27 (+/- 1.84) % (Geq/mL) | relative proportion of cariogenic pathogens in biofilm [2, 6]: 0.27 (+/- 0.09) % (Geq/mL) | relative proportion of periodontal pathogens in biofilm [2, 6]: 35.46 (+/- 1.82) % (Geq/mL)
